According to ChEMBL document CHEMBL1141981, “Studies on synthesis and evaluation of quantitative structure-activity relationship of 5-[(3'-chloro-4',4'-disubstituted-2-oxoazetidinyl)(N-nitro)amino]-6-hydroxy-3-alkyl/aryl[1,3]azaphospholo[1,5-a]pyridin-1-yl-phosphorus dichlorides” (2005):
Values joined by “and” are separate entries in the source; they are usually repeats but may differ in a detail not shown here. Identical values can stand only once.

Columns and labels:
Assay type in all cases: functional
[1] = Minimum inhibitory concentration against Candida albicans
Bacillus subtilis = test: Minimum inhibitory concentration against Bacillus subtilis
Staphylococcus aureus = test: Minimum inhibitory concentration against Staphylococcus aureus

| SMILES | -Log MIC [1] | -Log MIC (Bacillus subtilis) | -Log MIC (Staphylococcus aureus) |
| --- | --- | --- | --- |
| Clc1ccccc1C(c1ccccc1)(c1ccccc1)n1ccnc1 | 3.14 µg ml-1 and 3.24 µg ml-1 | – | – |
| CC1(C)S[C@@H]2[C@H](NC(=O)[C@H](N)c3ccccc3)C(=O)N2[C@H]1C(=O)O [AMPICILLIN] | – | 4.606 ug ml-1 | 3.097 ug ml-1 |
